Each block holds one molecule with its values, some of them ahead of it.
How the values were obtained:
[1] = Growth inhibition of human MDA435/LCC6 cells after 72 hrs by SRB assay; assay type: functional; settings: MDA-435/LCC6, 72 h
MES-SA/Dx5 = assay: Growth inhibition of human MES-SA/Dx5 cells after 72 hrs by SRB assay; assay type: functional, cell-based; settings: MES-SA/Dx5, 72 h
HCT-116 = assay: Cytotoxicity against human HCT116 cells; assay type: functional, cell-based
[2] = (§1) Binding affinity to P-gp (unknown origin); parameters: species or system Homo sapiens
Homo sapiens = organism: Homo sapiens; assay: as §1

Structure (SMILES): CC(=O)O[C@H]1C(=O)[C@@]2(C)[C@H]([C@H](OC(=O)c3ccccc3)[C@]3(O)C[C@H](OC(=O)[C@H](O)[C@@H](NC(=O)c4ccccc4)c4ccccc4)C(C)=C1C3(C)C)[C@]1(OC(C)=O)CO[C@@H]1C[C@@H]2O [PACLITAXEL]
IC50 [1]: 346 nM
IC50 (MES-SA/Dx5): 210 nM

Structure (SMILES): C/C(=C\c1csc(C)n1)[C@@H]1C/C=C\C/C=C\[C@H](C)[C@H](O)[C@@H](C)C(=O)C(C)(C)[C@@H](O)CC(=O)O1
IC50 (HCT-116): 0.41 nM

EC50 [2]: < 100 nM
Structure (SMILES): COc1cc2c(cc1OC)CN(CCc1ccc(NC(=O)c3cc(OC)c(OC)cc3NC(=O)c3cnc4ccccc4c3)cc1)CC2 [TARIQUIDAR]

Activity (Homo sapiens): 10 µM
Structure (SMILES): COc1ccc(CCN(C)CCCC(C#N)(c2ccc(OC)c(OC)c2)C(C)C)cc1OC (stereo not drawn)

Structure (SMILES): CO[C@H]1C(=O)[C@]2(C)[C@@H](OC)C[C@H]3OC[C@@]3(OC(C)=O)[C@H]2[C@H](OC(=O)c2ccccc2)[C@]2(O)C[C@H](OC(=O)[C@H](O)[C@@H](NC(=O)OC(C)(C)C)c3ccccc3)C(C)=C1C2(C)C [CABAZITAXEL]
IC50 (MES-SA/Dx5): 15 nM

Structure (SMILES): C/C(=C\c1csc(C)n1)[C@@H]1C[C@@H]2O[C@]2(C)CCC[C@H](C)[C@H](O)[C@@H](C)C(=O)C(C)(C)[C@@H](O)CC(=O)N1 [IXABEPILONE]
IC50 (HCT-116): 2.6 nM

EC50 [2]: < 100 nM
Structure (SMILES): O[C@@H](COc1cccc2ncccc12)CN1CCN([C@@H]2c3ccccc3[C@@H]3[C@H](c4ccccc42)C3(F)F)CC1 [ZOSUQUIDAR]
